In patent publication US20240116939A1, “CHIRAL OR RACEMIC PYRIMIDINE-FUSED DIAZEPINONE DERIVATIVES, PREPARATION METHOD, AND APPLICATION THEREOF” (SUN YAT-SEN UNIVERSITY, priority 2021, published 2024):

Columns and labels:
PC12 cells [1] = assay: MTT cell viability of corticosterone (CORT)-induced PC12 cells (in vitro depression model); settings: for Cell viability (%): PC12 cells pretreated with 600 μM corticosterone 24 h; for Cell viability (%) / viability at 0.625 µM / Culture time needed to exert effect on cell survival: drug 0.625 uM; for Cell viability (%) / viability at 0.625 µM: 24 h culture, average of three independent experiments; for Cell viability (%) / viability at 0.625 µM / Effect on death rate of cells caused by CORT (cell survival rate): MTT; for viability at 0.625 µM: PC-12, read-out: Cell viability (%), PC12 cells pretreated with 600 μM corticosterone 24 h; for Effect on death rate of cells caused by CORT (cell survival rate): 0.625-20 uM at 12 h, 0.625 uM at 12, 24, 48 h, A and B of FIG. 2; for Culture time needed to exert effect on cell survival: B of FIG. 2
Method: PC12 cells are purchased from Procell Life Science & Technology Co., Ltd. (Wuhan, China). All cell culture reagents are purchased from Life Technologies (Grand Island, Nebraska, USA). Cells are cultured in Dulbecco's modified Eagle's medium (Gibco, USA) including 10% fetal calf serum (Gibco, USA) at 37° C. in an incubator including 5% CO2.
Corticosterone (CORT)-induced PC12 cells are usually used to establish the depression model in vitro.
Cell viability is measured by using MTT [3-(4,5-dimethyl-2-thiazolyl)-2,5-diphenyl-2H-tetrazolium bromide].

PC12 cells [2] = assay: Hoechst and PI staining of PC12 cell apoptosis; assay type: cell-based; settings: drug 1.0 uM, 48 hours
Method: PC12 cell apoptosis is detected by Hoechst and PI staining. Hoechst can bind to cell nucleus of living cells, while PI (propidium iodide) can bind to the nucleuses of dead cells. The PC12 cells are plated in 12-well plates, and after being treated with drugs for 48 hours, the PC12 cells are stained with the nuclear dye Hoechst. The PC12 cells are washed twice with PBS and continued to be incubated with 10 mg/L Hoechst in the incubator for 20 min, For PI staining, the PC12 cells are incubated with a working solution including PI (final concentration 1 μg/mL) at room temperature for 10 min […] The PC12 cells are observed and photographed by a fluorescence microscope (Zeiss, Germany), and the results are shown in FIGS. 2 and 3. Blue fluorescence (white background) represents living cells, and red fluorescence (black background) represents dead cells.

cofilin-1 = assay: Western blotting of cofilin-1 in CORT-treated PC12 cells; assay type: cell-based; settings: Western blot; 0.625 uM; A and B of FIG. 3
Method: (§1) PC12 cells are lysed in RIPA lysis solution including 1% phenylmethylsulfonyl fluoride (PMSF) on ice for 30 minutes, the supernatant solution is collected and centrifuged, and the protein concentration of the supernatant solution is measured by a BCA assay kit (Beyotime, Shanghai). Protein samples are loaded onto 10% SDS-polyacrylamide gel electrophoresis and then further transferred to PVDF membrane (Millipore, MA, USA). The PVDF membrane is blocked with 5% non-fat milk and then incubated with a single primary antibody at 4° C. overnight. After washing with Tris-buffered saline containing Tween-20 (0.1%) (TBST), the PVDF membrane is incubated with secondary antibodies at room temperature. The PVDF membrane is analyzed by ECL reagents (Beyotime, Shanghai) and a BIO-RAD ChemiDoc XRS system. Protein band intensity is performed by Image J software (The National Institutes of Health, Bethesda, MD, USA).

NF-κB = assay: Western blotting of NF-κB in CORT-treated PC12 cells; assay type: cell-based; settings: Western blot; 0.625 uM; A and B of FIG. 3
Method: as §1

GR = assay: Western blotting of GR in CORT-treated PC12 cells; assay type: cell-based; settings: Western blot; 0.625 uM; A and B of FIG. 3
Method: as §1

SMILES | PC12 cell death / apoptosis caused by corticosterone (blue and red fluorescence number) (PC12 cells [2]) | viability at 0.625 µM (PC12 cells [1]; Rattus norvegicus) [%] | melting point [°C] | further results
C=C[C@@H]1CN(Cc2ccccc2)C(=O)c2cnc(N3CCOCC3)nc2N1c1ccccc1 [(R)-I-1, (R)-6-benzyl-2-morpholino-9-phenyl-8-vinyl-6,7,8,9-tetrahydro-5H-pyrimido [4,5-e][1,4]diazapine-5-one] | – | – | – | Cell viability (%) (PC12 cells [1]): 82.8 ± 2.5%
C=C[C@@H]1CN(Cc2ccccc2)C(=O)c2cnc(N3CCOCC3)nc2N1Cc1ccccc1 [(R)-I-8, (R)-6,9-dibenzyl-2-morpholinyl-8-vinyl-6,7,8,9-tetrahydro-5H-pyrimido[4,5-e][1.4]diazepine-5-one] | – | – | – | Cell viability (%) (PC12 cells [1]): 82.0 ± 2.0%
C=C[C@@H]1CN(Cc2ccccc2)C(=O)c2cnc(OC)nc2N1c1ccccc1 [(R)-I-9, (R)-6-benzyl-2methoxy-9-phenyl-8-vinyl-6,7,8,9-tetrahydro-5H-pyrimido[4,5-e][1,4]diazepin-5-one] | can reverse the massive apoptosis of the PC12 cells caused by corticosterone | 85.4 ± 2.9 | – | Overexpression of cofilin-1 (cofilin-1): inhibit the overexpression; Overexpression of NF-κB (NF-κB): inhibit the overexpression; Expression of GR (GR): promote the expression of GR
C=C[C@@H]1CN(Cc2ccccc2)C(=O)c2cnc(-c3ccccc3)nc2N1c1ccccc1 [(R)-I-13, (R)-6-benzyl-2,9-diphenyl-8-vinyl-6,7,8,9-tetrahydro-5H-pyrimido[4,5-e][1,4]diazepine-5-one] | – | 81.9 ± 4.5 | 212.7 to 213.6 | –
C=C[C@@H]1CN(Cc2ccccc2)C(=O)c2cnc(Nc3ccccc3)nc2N1c1ccccc1 [(R)-I-18, (R)-6-benzyl-9-phenyl-2-anilino-8-vinyl-6,7,8,9-tetrahydro-5H-pyrimido[4,5-e][1,4]diazepine-5-one] | – | 75.2 ± 4.4 | 232.1 to 232.3 | –
C=C[C@H]1CN(Cc2ccccc2)C(=O)c2cnc(N3CCOCC3)nc2N1CCC [(S)-I-5, (S)-6-benzyl-2-morpholino-9-propyl-8-vinyl-6,7,8,9-tetrahydro-5H-pyrimido[4,5-e][1,4]diazepine-5-one] | – | 89.4 ± 2.9 | – | –
C=C[C@H]1CN(Cc2ccccc2)C(=O)c2cnc(C)nc2N1c1ccccc1 [(S)-I-10, (S)-6-benzyl-2-methyl-9-phenyl-8-vinyl-6,7,8,9-tetrahydro-5H-pyrimido[4,5-e][1,4]diazepin-5-one] | higher number of blue fluorescence than (R)-I-9 | 97.8 ± 3.4 | – | –
C=C[C@H]1CN(Cc2ccccc2)C(=O)c2cnc(N3CCN(C)CC3)nc2N1c1ccccc1 [(S)-I-11, (S)-6-benzyl-2-(4-methyl-1-piperazinyl)-9-phenyl-8-vinyl-6,7,8,9-tetrahydro-5H-pyrimido[4,5-e]diazepine-5-one] | can reduce cell death | – | – | Effect on death rate of cells caused by CORT (cell survival rate) (PC12 cells [1]): can effectively reduce the death rate of cells caused by CORT; Culture time needed to exert effect on cell survival (PC12 cells [1]): 12 h
C=C[C@H]1CN(Cc2ccccc2)C(=O)c2cnc(N3CCCC3)nc2N1c1ccccc1 [(S)-I-12, (S)6-benzyl-9-phenyl-2-(1-tetrahydropyrrolyl)-8-vinyl-6,7,8,9-tetrahydro-5H-pyrimido[4,5-e][1,4]diazepin-5-one] | – | 98.6 ± 3.1 | 153.8 to 154.3 | –
C=C[C@H]1CN(Cc2ccccc2)C(=O)c2cnc(-c3cccc4ccccc34)nc2N1c1ccccc1 [(S)-I-14, (S)-6-benzyl-2-(1-naphthyl)-9-phenyl-8-vinyl-6,7,8,9-tetrahydro-5H-pyrimido[4,5-e][1,4]diazepin-5-one] | – | 88.1 ± 4.7 | 227.2 to 227.4 | Survival rate of PC12 cells, comparison of chiral configurations (PC12 cells [1]; 0.625 uM, B, C and D of FIG. 4): can increase the survival rate better than their corresponding racemates
C=C[C@H]1CN(Cc2ccccc2)C(=O)c2cnc(-c3cnccc3OC)nc2N1c1ccccc1 [(S)-I-17, (S)-6-benzyl-2-(4-methoxy-3-pyridyl)-9-phenyl-8-vinyl-6,7,8,9-tetrahydro-5H-pyrimido[4,5-e][1,4]diazepin-5-one] | can reverse the massive apoptosis of the PC12 cells caused by corticosterone | 96.9 ± 2.7 | – | Overexpression of cofilin-1 (cofilin-1): inhibit the overexpression; Overexpression of NF-κB (NF-κB): inhibit the overexpression; Expression of GR (GR): promote the expression of GR
C[C@]12C[C@H](O)[C@H]3[C@@H](CCC4=CC(=O)CC[C@@]43C)[C@@H]1CC[C@@H]2C(=O)CO [CORT, corticosterone, reference compound] | – | – | – | Cell viability (%) with corticosterone alone (PC12 cells [1]; PC12 cells, 600 μM corticosterone, 24 hours, no drug (model group)): 60.5 ± 3.6%; viability at 600 µM (PC12 cells [1]; Rattus norvegicus, PC-12, 24 h, read-out: Cell viability (%) with corticosterone alone, PC12 cells, 600 μM corticosterone, 24 hours, no drug (model group)): 60%
C=C[C@@H]1CN(Cc2ccccc2)C(=O)c2cnc(-c3ccco3)nc2N1c1ccccc1 [Compound I-16, (R)-6-benzyl-2-(2-furyl)-9-phenyl-8-vinyl-6,7,8,9-tetrahydro-5H-pyrimido[4,5-e][1,4]diazepin-5-one] | – | – | 178.5 to 178.6 | –
CNCCC(Oc1ccc(C(F)(F)F)cc1)c1ccccc1 (stereo not drawn) [fluoxetine, reference compound] | can reduce cell death | 76.8 ± 6.4 | – | Overexpression of cofilin-1 (cofilin-1): inhibit the overexpression; Expression of GR (GR): promote the expression of GR; Effect on death rate of cells caused by CORT (cell survival rate) (PC12 cells [1]): can effectively reduce the death rate of cells caused by CORT; Culture time needed to exert effect on cell survival (PC12 cells [1]): 48 h
